Results: article PMC5605198, “MELK is not necessary for the proliferation of basal-like breast cancer cells” (eLife, 2017)
pIC50: −log10 of the molar value. Like-named read-outs stand apart in the source and are kept apart here. Each block holds one compound with its values, some of them ahead of it.

How the values were obtained:
CDK7 = CDK7 (Homo sapiens, UniProt P50613); experiment: Adapta kinase assay; details: Adapta assay at [ATP]=apparent Km; read-out: Biochemical IC50 CDK7
GSK3A = GSK3A (Homo sapiens, UniProt P49840); experiment: Z’-LYTE enzymatic assay; details: Z’-LYTE assay at [ATP]=apparent Km; read-out: Biochemical IC50 GSK3A
MELK [1] = target: T1, MELK (Homo sapiens, UniProt Q14680); experiment: KINOMEscan MELK pull-down; type: binding
Method: Based on biochemical (KINOMEscan) and cellular (KiNativ) kinase profiling of our in-house library of structurally diverse ATP-competitive kinase inhibitors, we identified several chemotypes that were prioritized for further characterization and development. In particular, we focused on JW-7-25-1 (Figure 1A), a benzonaphthyridinone derivative that inhibited MELK pull-down by 100% (KINOMEscan) at 10 μM.

MELK [2] = target: T1, MELK; experiment: Z’-LYTE enzymatic assay; type: biochemical
mTOR = mTOR (Homo sapiens, UniProt P42345); experiment: Z’-LYTE enzymatic assay; details: Z’-LYTE assay at [ATP]=apparent Km; read-out: Biochemical IC50 mTOR
ZR-75-1 = experiment: Cell proliferation assay (CellTiter-Glo); details: Homo sapiens, ZR-75-1, 72 h, read-out: 3-day antiproliferative IC50
MDA-MB-468 = experiment: Cell proliferation assay (CellTiter-Glo); details: Homo sapiens
Flt3 = system: Flt3; set-up: method as in Johnson et al., 2015; details: ref Johnson et al., 2015; cited from earlier work
MELK [3] = target: T1, MELK; experiment: Inhibitor-induced MELK degradation, immunoblot; details: MDA-MB-468 cells; pretreatment carfilzomib (400 nM) or MLN4924 (1 μM) 4 hours, then MELK inhibitor 4 hours
T-47D = experiment: Cell proliferation assay (CellTiter-Glo); details: Homo sapiens, T47D
MCF7 = experiment: Cell proliferation assay (CellTiter-Glo); details: Homo sapiens
[4] = system: MDA-MB-468 (second source); experiment: Cell proliferation assay (CellTiter-Glo); details: Homo sapiens, MDA-MB-468, 168 h, read-out: 7-day antiproliferative IC50
BT-549 = experiment: Cell proliferation assay (CellTiter-Glo); details: Homo sapiens
HCC70 = experiment: Cell proliferation assay (CellTiter-Glo); details: Homo sapiens
FKBP12^F36V-MELK(sg3R) = experiment: dTAG-induced degradation, immunoblot; type: cell-based; details: MELK−/− MDA-MB-468-FKBP12^F36V-MELK(sg3R) cells; for duration of sustained degradation of FKBP12^F36V-MELK(sg3R): 500 nM
Method: (§1) Four dTAG molecules (7, 13, 36 and 47) that vary in linker length and chemical structure were tested for their efficiency at depleting FKBP12^F36V-MELK(sg3R) (Figure 4A, Figure 4—figure supplement 3).
Figure 4. […] (A) Chemical structure of heterobifunctional dTAG molecule dTAG-47. See also Figure 4—figure supplement 3 for the chemical structures of dTAG-7, dTAG-13 and dTAG-36. (B) Immunoblots for MELK and GAPDH after treatment of dTAG-7, 13, 36, and 47 at indicated concentrations in MELK−/− MDA-MB-468-FKBP12^F36V-MELK(sg3R) cells for 4 hours. See Figure 4—figure supplement 1 for details of the generation of MELK−/− MDA-MB-468-FKBP12^F36V-MELK(sg3R) clones. (C) Same as in 4B, but with treatment at 500 nM and extended treatment times for 14, 24, 48, and 72 hours. (D) Changes in abundance of 7270 proteins (peptide count ≥2) comparing MELK−/− MDA-MB-468-FKBP12^F36V-MELK cells treated with dTAG-7 (250 nM) or DMSO for 1 hour, versus p-value (dTAG-7: triplicate, DMSO: duplicate, limma moderated t-test). See also Figure 4—source datas 1 and 2 for the original and the processed data. (E) Crystal violet staining image showing parental MDA-MB-468 cells and MELK−/− MDA-MB-468-FKBP12^F36V-MELK(sg3R) cells after treatment with DMSO or 500 nM of dTAG-47 for 9 days. Immunoblots showing MELK and GAPDH from a duplicate plate on Day 9 confirmed sustained depletion of FKBP12^F36V-MELK(sg3R). These are representative data from one of two independent experiments. Figure 4—source data 1. Raw integrated ion intensities from quantitative multiplexed proteomics. Figure 4—source data 2. Processed Data and Statistical Analysis by limma (topTable). Figure 4—figure supplement 1. Single clones selected from MDA-MB-468-FKBP12^F36V-MELK(sg3R) cells subject to CRISPR/Cas9-mediated knockout of endogenous MELK. Immunoblots for MELK and GAPDH in single cell clones selected from MDA-MB-468-FKBP12^F36V-MELK(sg3R) transfected with Cas9/sgMELK-3 to knockout endogenous MELK. Clone 1D4 is clone 1 and clone 1A3 is clone 2 in Figure 4. Clone 1D4 was confirmed with heterozygous −1 and +1 indels; clone 1A3 was confirmed with homozygous −1 deletions. [drawing 5] Figure 4—figure supplement 2. […] (A) Immunoblots for MELK, cyclin B1 and GAPDH in asynchronous versus M-phase arrested MDA-MB-468 cells and MDA-MB-468-FKBP12^F36V-MELK(sg3R) cells (clone 1). […] Chemical structures of dTAG molecules. FKBP12^F36V-binding ligands conjugated by variable linkers to thalidomide or pomalidomide, including (A) dTAG-7, (B) dTAG-13 and (C) dTAG-36 are capable of inducing degradation of FKBP12^F36V-tagged proteins of interest. [drawing 7]

[5] = system: MELK−/− MDA-MB-468-FKBP12^F36V-MELK(sg3R) cells; experiment: 9-day proliferation assay, crystal violet staining; type: cell-based; details: 500 nM, 9 days, two clones
Method: as §1
Figure 4. […] (A) Chemical structure of heterobifunctional dTAG molecule dTAG-47. See also Figure 4—figure supplement 3 for the chemical structures of dTAG-7, dTAG-13 and dTAG-36. (B) Immunoblots for MELK and GAPDH after treatment of dTAG-7, 13, 36, and 47 at indicated concentrations in MELK−/− MDA-MB-468-FKBP12^F36V-MELK(sg3R) cells for 4 hours. See Figure 4—figure supplement 1 for details of the generation of MELK−/− MDA-MB-468-FKBP12^F36V-MELK(sg3R) clones. (C) Same as in 4B, but with treatment at 500 nM and extended treatment times for 14, 24, 48, and 72 hours. (D) Changes in abundance of 7270 proteins (peptide count ≥2) comparing MELK−/− MDA-MB-468-FKBP12^F36V-MELK cells treated with dTAG-7 (250 nM) or DMSO for 1 hour, versus p-value (dTAG-7: triplicate, DMSO: duplicate, limma moderated t-test). See also Figure 4—source datas 1 and 2 for the original and the processed data. (E) Crystal violet staining image showing parental MDA-MB-468 cells and MELK−/− MDA-MB-468-FKBP12^F36V-MELK(sg3R) cells after treatment with DMSO or 500 nM of dTAG-47 for 9 days. […] Raw integrated ion intensities from quantitative multiplexed proteomics. […]

[6] = MDA-MB-468, 72 h, read-out: 3-day antiproliferative IC50
[7] = 72 h, read-out: 3-day antiproliferative IC50
[8] = 168 h, read-out: 7-day antiproliferative IC50
[9] = MCF7, 72 h, read-out: 3-day antiproliferative IC50
[10] = BT-549, 72 h, read-out: 3-day antiproliferative IC50
[11] = BT-549, 168 h, read-out: 7-day antiproliferative IC50
[12] = HCC70, 72 h, read-out: 3-day antiproliferative IC50
[13] = HCC70, 168 h, read-out: 7-day antiproliferative IC50
[14] = MDA-MB-468, 168 h, read-out: 7-day antiproliferative IC50

T1 sequence (Q14680 whole entry): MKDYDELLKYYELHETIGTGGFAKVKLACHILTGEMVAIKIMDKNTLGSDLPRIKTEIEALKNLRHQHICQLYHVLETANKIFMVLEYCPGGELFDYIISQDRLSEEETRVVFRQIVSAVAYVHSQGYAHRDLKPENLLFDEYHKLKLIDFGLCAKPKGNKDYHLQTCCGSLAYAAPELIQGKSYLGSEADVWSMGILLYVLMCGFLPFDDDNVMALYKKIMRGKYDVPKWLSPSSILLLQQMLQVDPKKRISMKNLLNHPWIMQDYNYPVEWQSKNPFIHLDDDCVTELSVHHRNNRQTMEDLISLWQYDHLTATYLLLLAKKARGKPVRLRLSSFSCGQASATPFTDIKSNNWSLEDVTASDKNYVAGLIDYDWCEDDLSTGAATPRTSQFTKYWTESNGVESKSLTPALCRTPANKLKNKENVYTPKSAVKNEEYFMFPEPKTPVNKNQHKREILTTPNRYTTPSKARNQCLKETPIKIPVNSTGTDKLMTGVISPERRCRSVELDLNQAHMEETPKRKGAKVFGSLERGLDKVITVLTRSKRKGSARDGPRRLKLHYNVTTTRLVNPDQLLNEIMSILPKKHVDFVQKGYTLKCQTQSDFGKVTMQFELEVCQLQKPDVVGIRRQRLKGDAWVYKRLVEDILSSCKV
Sequence of GSK3A (P49840 whole entry): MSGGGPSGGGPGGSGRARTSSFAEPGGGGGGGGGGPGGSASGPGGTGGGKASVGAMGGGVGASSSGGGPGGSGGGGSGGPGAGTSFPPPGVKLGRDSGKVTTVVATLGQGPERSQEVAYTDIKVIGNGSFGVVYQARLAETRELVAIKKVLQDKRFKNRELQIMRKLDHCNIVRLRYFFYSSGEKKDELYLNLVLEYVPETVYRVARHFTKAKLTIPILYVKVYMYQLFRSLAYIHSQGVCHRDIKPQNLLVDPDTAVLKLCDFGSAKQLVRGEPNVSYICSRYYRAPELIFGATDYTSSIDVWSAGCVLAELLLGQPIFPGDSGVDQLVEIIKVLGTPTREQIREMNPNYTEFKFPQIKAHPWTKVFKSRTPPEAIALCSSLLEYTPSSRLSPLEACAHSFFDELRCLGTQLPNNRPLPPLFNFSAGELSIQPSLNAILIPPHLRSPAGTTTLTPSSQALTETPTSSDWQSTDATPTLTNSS
Sequence of CDK7 (P50613 whole entry): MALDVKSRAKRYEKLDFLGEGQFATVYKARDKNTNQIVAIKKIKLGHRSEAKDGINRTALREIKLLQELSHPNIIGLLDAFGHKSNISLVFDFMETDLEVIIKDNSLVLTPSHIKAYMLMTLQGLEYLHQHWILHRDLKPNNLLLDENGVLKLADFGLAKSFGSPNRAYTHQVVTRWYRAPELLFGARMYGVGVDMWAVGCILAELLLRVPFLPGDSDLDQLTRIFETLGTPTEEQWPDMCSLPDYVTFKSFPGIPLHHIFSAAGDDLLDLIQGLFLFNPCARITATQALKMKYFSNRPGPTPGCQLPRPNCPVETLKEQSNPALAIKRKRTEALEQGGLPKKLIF
Sequence of CDK7 (P51946 whole entry partner): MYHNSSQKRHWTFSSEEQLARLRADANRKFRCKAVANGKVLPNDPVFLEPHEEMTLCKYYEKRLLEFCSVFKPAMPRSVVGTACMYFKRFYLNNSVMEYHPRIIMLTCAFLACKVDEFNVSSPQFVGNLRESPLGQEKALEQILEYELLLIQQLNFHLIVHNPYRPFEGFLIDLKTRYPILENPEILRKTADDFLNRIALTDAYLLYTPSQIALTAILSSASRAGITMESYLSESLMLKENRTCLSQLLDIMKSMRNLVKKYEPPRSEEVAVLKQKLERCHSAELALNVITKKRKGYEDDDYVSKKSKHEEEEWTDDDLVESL
Sequence of CDK7 (P51948 whole entry partner): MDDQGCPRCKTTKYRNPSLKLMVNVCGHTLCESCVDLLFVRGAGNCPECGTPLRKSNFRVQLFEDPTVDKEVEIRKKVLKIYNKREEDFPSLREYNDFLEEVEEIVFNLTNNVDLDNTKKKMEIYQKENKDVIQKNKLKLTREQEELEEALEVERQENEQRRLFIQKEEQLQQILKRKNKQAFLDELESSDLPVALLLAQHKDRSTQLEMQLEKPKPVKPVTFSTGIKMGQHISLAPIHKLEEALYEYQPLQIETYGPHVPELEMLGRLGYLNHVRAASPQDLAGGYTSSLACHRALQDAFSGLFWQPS

Structure (SMILES): O=c1ccc2cnc3ccc(-c4ccc(O)cc4)cc3c2n1-c1ccc(N2CCNCC2)c(C(F)(F)F)c1 [JW-7-25-1]
pIC50 (CDK7): 7.20
pIC50 (GSK3A): 7.91
inhibition at 10 µM (MELK [1]): 100%
pIC50 (MELK [2]; Z’-LYTE assay at [ATP]=apparent Km, read-out: Biochemical IC50 MELK): 8.30
pIC50 (mTOR): 8.26

Structure (SMILES): NS(=O)(=O)OC[C@@H]1C[C@@H](n2ccc3c(N[C@H]4CCc5ccccc54)ncnc32)C[C@@H]1O [MLN4924]
rescue of inhibitor-induced MELK degradation by pretreatment (MELK [3]): minimal effect

Structure (SMILES): CCC(C(=O)N1CCCCC1C(=O)OC(CCc1ccc(OC)c(OC)c1)c1ccccc1OCC(=O)NCCCCCCOc1cccc2c1C(=O)N(C1CCC(=O)NC1=O)C2=O)c1cc(OC)c(OC)c(OC)c1 (stereo not shown) [dTAG-13]
duration of sustained degradation of FKBP12^F36V-MELK(sg3R) (FKBP12^F36V-MELK(sg3R)): up to 72 hours
time to efficient depletion of FKBP12^F36V-MELK(sg3R) (FKBP12^F36V-MELK(sg3R)): ≤ 4 h

Structure (SMILES): CC[C@H](C(=O)N1CCCC[C@H]1C(=O)O[C@H](CCc1ccc(OC)c(OC)c1)c1ccccc1OCC(=O)NCCCCCCCCNc1cccc2c1C(=O)N(C1CCC(=O)NC1=O)C2=O)c1cc(OC)c(OC)c(OC)c1 (stereo partly drawn) [dTAG-36, (2S)-(1R)−3-(3,4-dimethoxyphenyl)−1-(2-(2-((8-((2-(2,6-dioxopiperidin-3-yl)−1,3-dioxoisoindolin-4-yl)amino)octyl)amino)−2-oxoethoxy)phenyl)propyl 1-((S)−2-(3,4,5-trimethoxyphenyl)butanoyl)piperidine-2-carboxylate]
duration of sustained degradation of FKBP12^F36V-MELK(sg3R) (FKBP12^F36V-MELK(sg3R)): up to 72 hours
time to efficient depletion of FKBP12^F36V-MELK(sg3R) (FKBP12^F36V-MELK(sg3R)): ≤ 4 h

Structure (SMILES): CC[C@H](C(=O)N1CCCC[C@H]1C(=O)O[C@H](CCc1ccc(OC)c(OC)c1)c1ccccc1OCC(=O)NCCCCCCCCNc1ccc2c(c1)C(=O)N(C1CCC(=O)NC1=O)C2=O)c1cc(OC)c(OC)c(OC)c1 (stereo partly drawn) [dTAG-47, (2S)-(1R)−3-(3,4-dimethoxyphenyl)−1-(2-(2-((8-((2-(2,6-dioxopiperidin-3-yl)−1,3-dioxoisoindolin-5-yl)amino)octyl)amino)−2-oxoethoxy)phenyl)propyl 1-((S)−2-(3,4,5-trimethoxyphenyl)butanoyl)piperidine-2-carboxylate]
duration of sustained degradation of FKBP12^F36V-MELK(sg3R) (FKBP12^F36V-MELK(sg3R)): up to 72 hours
time to efficient depletion of FKBP12^F36V-MELK(sg3R) (FKBP12^F36V-MELK(sg3R)): ≤ 4 h
growth in 9-day proliferation assay [5]: neither of the FKBP12^F36V-MELK(sg3R) MELK−/− clones exhibited growth impairment

Further lines, with some results ahead:

pIC50 (MDA-MB-468; [6]): < 5.00
Structure (SMILES): COc1cc(-c2cn[nH]c2)ccc1C(=O)Nc1ccc2c(c1)CCNCC2 [MELK-T1]
pIC50 (ZR-75-1): < 5.00
pIC50 (Flt3): 7.74

pIC50 (T-47D; [7]): 5.23
pIC50 (T-47D; [8]): 6.21
pIC50 (MCF7; [9]): 6.36
pIC50 [4]: 6.04
pIC50 (BT-549; [10]): 6.40
pIC50 (BT-549; [11]): 6.51
pIC50 (MDA-MB-468; [6]): 6.24
pIC50 (MDA-MB-468; [14]): 6.80
Structure (SMILES): CC1(C)C(=O)N([C@H]2CCc3c(O)cccc32)c2nc(Nc3cccc(CN4CCCC4)c3)ncc21 [MRT199665]
pIC50 (ZR-75-1): 5.32
pIC50 (HCC70; [12]): 6.41
pIC50 (HCC70; [13]): 7.12

pIC50 (T-47D; [7]): < 5.00
pIC50 (T-47D; [8]): 5.31
pIC50 (MCF7; [9]): 5.22
pIC50 (MCF7; MCF7, 168 h, read-out: 7-day antiproliferative IC50): 5.55
pIC50 (MELK [2]; Biochemical IC50 MELK, Z’-LYTE assay at [ATP]=apparent Km): 7.92
pIC50 (MELK [2]; Note: MELK IC50, note column of Table 3): 7.92
pIC50 (MELK [2]; Potency (MELK), measured by Z’LYTE biochemical assay, class symbols in Figure 2C): > 7.70
pIC50 [4]: 5.08
pIC50 (BT-549; [10]): 5.09
pIC50 (BT-549; [11]): 5.30
pIC50 (MDA-MB-468; [6]): 5.27
pIC50 (MDA-MB-468; [14]): 5.53
Structure (SMILES): CN1CCN(c2ccc(-n3cc(-c4ccncc4OCC4CCNCC4)cn3)cc2)CC1 [NVS-MELK8a]
pIC50 (ZR-75-1): < 5.00
pIC50 (HCC70; [12]): 5.22
pIC50 (HCC70; [13]): 5.38

rescue of inhibitor-induced MELK degradation by pretreatment (MELK [3]): prevented degradation
Structure (SMILES): CC(C)C[C@H](NC(=O)[C@H](CCc1ccccc1)NC(=O)CN1CCOCC1)C(=O)N[C@@H](Cc1ccccc1)C(=O)N[C@@H](CC(C)C)C(=O)[C@@]1(C)CO1 [carfilzomib]
